Measured values published in ChEMBL document CHEMBL4680374, “Carbamate and N-Pyrimidine Mitigate Amide Hydrolysis: Structure-Based Drug Design of Tetrahydroquinoline IDO1 Inhibitors” (ACS Med Chem Lett, 2021).
In brackets after ≈: the same amount, converted by molar mass. Activity calls are given as the source filed them. The calls are words filed in the database; no cut-off is given here.

How the values were obtained:
[1] = Solubility of compound in PBS buffer at pH 2 at 200 uM incubated for 24 hrs in shaker by UPLC-DAD analysis; assay type: physicochemical
[2] = Lipophilicity, log D of compound in PBS buffer at pH 7 at 200 uM incubated for 24 hrs in shaker by UPLC/DAD analysis; assay type: physicochemical
[3] = Solubility of compound in PBS buffer at pH 7 at 200 uM incubated for 24 hrs in shaker by UPLC-DAD analysis; assay type: physicochemical
[4] = Inhibition of Ca ion channel (unknown origin); parameters: species or system Homo sapiens
[5] = Protein binding in rat plasma assessed as unbound fraction; assay type: ADME, cell-free
[6] = Inhibition of Na ion channel (unknown origin); parameters: species or system Homo sapiens
[7] = Apparent permeability of compound; assay type: ADME; conditions: not told
[8] = Protein binding in human plasma assessed as unbound fraction; assay type: ADME, cell-free
[9] = Drug metabolism in rat hepatocytes assessed as amide hydrolysis metabolite formation at 30 uM measured upto 90 mins by LC-MS analysis; assay type: ADME, cell-based, Hepatocyte
[10] = Drug metabolism in human hepatocytes assessed as amide hydrolysis metabolite formation at 30 uM measured upto 90 mins by LC-MS analysis; assay type: ADME, cell-based, Hepatocyte
[11] = Clearance in rat at 0.05 mg/kg, iv; assay type: ADME, organism-based; conditions: in vivo
[12] = Unbound clearance in rat at 0.05 mg/kg, iv; assay type: ADME, organism-based; conditions: in vivo
Cytochrome P450 3A4 = Cytochrome P450 3A4 (Homo sapiens, UniProt P08684); test: Inhibition of CYP3A4 (unknown origin); assay type: ADME
[13] = Half life in rat at 2 mg/kg, po or 1 mg/kg, iv; assay type: ADME, organism-based; conditions: in vivo
[14] = biological target: Voltage-gated inwardly rectifying potassium channel KCNH2 (Homo sapiens, UniProt Q12809); test: Displacement of [35S]-MK499 binding to human ERG expressed in HEK293 cells incubated for 2 hrs by liquid scintillation counting method; assay type: cell-based
[15] = Oral bioavailability in rat at 2 mg/kg; assay type: ADME, organism-based; conditions: in vivo
[16] = Plasma clearance in rat at 2 mg/kg, po or 1 mg/kg, iv; assay type: ADME, organism-based
Cytochrome P450 2C9 = Cytochrome P450 2C9 (Homo sapiens, UniProt P11712); test: Inhibition of CYP2C9 (unknown origin); assay type: ADME
[17] = Unbound clearance in rat at 2 mg/kg, po or 1 mg/kg, iv; assay type: ADME, organism-based; conditions: in vivo
[18] = Metabolic stability in rat hepatocytes at 30 uM measured upto 90 mins by LC-MS analysis; assay type: ADME, cell-based, Hepatocyte
[19] = Metabolic stability in human hepatocytes at 30 uM measured upto 90 mins by LC-MS analysis; assay type: ADME, cell-based, Hepatocyte
[20] = biological target: Tryptophan 2,3-dioxygenase (Homo sapiens) (UniProt P48775); test: Inhibition of TDO in human SW48 cells assessed as inhibition of N-formylkynurenine production; assay type: cell-based
[21] = Drug metabolism in rat hepatocytes assessed as oxidative metabolite formation at 30 uM measured upto 90 mins by LC-MS analysis; assay type: ADME, cell-based, Hepatocyte
[22] = Drug metabolism in human hepatocytes assessed as oxidative metabolite formation at 30 uM measured upto 90 mins by LC-MS analysis; assay type: ADME, cell-based, Hepatocyte
[23] = biological target: Indoleamine 2,3-dioxygenase 1 (Homo sapiens) (UniProt P14902); conditions: Blood, time 1095.0 min
Chain of Indoleamine 2,3-dioxygenase 1 (Homo sapiens) (P14902 whole entry, looked up): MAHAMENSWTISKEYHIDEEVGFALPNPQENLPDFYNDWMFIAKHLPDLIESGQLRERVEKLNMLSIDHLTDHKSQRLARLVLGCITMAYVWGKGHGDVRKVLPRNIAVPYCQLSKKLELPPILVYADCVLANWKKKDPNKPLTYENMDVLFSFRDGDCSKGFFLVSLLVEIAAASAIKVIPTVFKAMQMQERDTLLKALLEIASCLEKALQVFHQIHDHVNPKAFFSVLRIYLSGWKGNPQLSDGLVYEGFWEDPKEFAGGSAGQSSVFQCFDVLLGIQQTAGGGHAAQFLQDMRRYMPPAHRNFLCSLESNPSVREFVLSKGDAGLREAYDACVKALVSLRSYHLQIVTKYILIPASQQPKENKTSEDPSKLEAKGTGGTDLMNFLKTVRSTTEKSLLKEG

Chain of Voltage-gated inwardly rectifying potassium channel KCNH2 (Q12809 whole entry): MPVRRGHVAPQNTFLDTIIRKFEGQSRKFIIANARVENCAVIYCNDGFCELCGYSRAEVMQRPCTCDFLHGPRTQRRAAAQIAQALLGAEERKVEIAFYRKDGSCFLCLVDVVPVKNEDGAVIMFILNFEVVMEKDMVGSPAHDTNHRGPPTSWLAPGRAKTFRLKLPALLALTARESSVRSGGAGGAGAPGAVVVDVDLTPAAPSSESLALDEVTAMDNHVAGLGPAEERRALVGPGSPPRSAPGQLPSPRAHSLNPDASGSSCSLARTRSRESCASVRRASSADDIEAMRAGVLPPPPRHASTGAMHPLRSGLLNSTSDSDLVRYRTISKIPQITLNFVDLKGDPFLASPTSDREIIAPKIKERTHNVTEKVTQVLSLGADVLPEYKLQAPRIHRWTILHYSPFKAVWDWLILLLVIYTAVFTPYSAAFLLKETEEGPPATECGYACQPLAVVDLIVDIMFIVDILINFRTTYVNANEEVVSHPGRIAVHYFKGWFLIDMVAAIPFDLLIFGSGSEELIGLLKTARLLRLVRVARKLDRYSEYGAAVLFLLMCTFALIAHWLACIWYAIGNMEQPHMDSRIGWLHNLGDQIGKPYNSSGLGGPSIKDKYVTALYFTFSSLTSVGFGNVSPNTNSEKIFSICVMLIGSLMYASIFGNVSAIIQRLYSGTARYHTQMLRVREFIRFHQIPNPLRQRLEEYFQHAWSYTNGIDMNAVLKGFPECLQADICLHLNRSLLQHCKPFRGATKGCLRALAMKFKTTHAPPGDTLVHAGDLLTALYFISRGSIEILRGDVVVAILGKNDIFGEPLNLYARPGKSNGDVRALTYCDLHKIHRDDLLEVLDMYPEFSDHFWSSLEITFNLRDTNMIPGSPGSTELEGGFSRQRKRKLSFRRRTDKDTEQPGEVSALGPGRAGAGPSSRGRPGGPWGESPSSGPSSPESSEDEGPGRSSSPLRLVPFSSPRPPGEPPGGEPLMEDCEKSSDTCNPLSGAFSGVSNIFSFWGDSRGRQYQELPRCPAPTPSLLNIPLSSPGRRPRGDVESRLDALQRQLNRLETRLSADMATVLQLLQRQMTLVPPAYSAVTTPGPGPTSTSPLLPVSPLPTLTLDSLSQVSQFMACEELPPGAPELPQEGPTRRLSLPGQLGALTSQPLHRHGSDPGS
Chain of Cytochrome P450 3A4 (P08684 whole entry): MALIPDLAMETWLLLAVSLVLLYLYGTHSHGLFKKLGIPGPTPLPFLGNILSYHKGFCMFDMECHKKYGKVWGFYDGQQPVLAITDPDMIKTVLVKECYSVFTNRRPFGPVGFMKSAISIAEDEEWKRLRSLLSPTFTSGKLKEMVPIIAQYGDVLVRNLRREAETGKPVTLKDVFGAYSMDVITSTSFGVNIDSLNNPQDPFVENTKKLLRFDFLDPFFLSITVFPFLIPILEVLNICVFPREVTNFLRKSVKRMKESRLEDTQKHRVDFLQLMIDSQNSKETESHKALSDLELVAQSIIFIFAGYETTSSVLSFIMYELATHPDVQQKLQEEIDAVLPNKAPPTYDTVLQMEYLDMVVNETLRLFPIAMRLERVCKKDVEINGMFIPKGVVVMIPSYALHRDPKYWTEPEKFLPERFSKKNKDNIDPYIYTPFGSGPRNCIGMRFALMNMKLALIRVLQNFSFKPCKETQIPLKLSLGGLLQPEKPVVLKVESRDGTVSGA
Chain of Cytochrome P450 2C9 (P11712 whole entry): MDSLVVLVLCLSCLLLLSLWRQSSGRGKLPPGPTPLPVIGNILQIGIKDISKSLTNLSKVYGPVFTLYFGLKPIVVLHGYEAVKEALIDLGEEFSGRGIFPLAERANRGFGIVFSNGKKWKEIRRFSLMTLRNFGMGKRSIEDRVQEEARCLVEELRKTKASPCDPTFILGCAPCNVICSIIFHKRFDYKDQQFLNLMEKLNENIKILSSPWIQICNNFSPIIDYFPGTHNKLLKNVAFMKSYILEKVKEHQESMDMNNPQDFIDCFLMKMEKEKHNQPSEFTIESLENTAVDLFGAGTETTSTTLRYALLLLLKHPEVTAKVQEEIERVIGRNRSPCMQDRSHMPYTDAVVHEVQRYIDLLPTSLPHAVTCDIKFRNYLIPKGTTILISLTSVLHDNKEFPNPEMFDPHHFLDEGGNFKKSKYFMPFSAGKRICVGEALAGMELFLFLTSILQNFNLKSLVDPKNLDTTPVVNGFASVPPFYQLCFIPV
Chain of Tryptophan 2,3-dioxygenase (Homo sapiens) (P48775 whole entry, looked up): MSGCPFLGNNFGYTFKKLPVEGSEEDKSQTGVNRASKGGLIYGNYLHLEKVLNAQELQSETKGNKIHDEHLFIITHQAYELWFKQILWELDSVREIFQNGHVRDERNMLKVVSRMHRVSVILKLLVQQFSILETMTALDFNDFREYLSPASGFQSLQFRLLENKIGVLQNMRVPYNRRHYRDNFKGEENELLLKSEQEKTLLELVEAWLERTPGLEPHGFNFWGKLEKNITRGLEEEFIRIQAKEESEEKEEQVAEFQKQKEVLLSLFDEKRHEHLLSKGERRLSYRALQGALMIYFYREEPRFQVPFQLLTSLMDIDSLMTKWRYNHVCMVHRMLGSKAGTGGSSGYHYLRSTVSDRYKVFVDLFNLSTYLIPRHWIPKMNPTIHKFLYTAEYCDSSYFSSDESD

Row | Structure (SMILES) | solubility at 24 h, 200 µM [1] [µM] | logD at 24 h, 200 µM [2] | solubility at 24 h, 200 µM [3] [µM] | IC50 [14] [µM] | further results
1 | C[C@@H](NC(=O)c1ccc(F)cc1)c1ccc2c(n1)CCCN2C(=O)OC1COC1 | 176 (≈ 70.3 µg/mL) | 2 | 168 (≈ 67.1 µg/mL) |  | 
2 | C[C@@H](NC(=O)c1ccc(F)cc1)c1ccc2c(n1)CCCN2C(=O)c1cccc(Cl)c1 | 148 (≈ 64.8 µg/mL) | 3.1 | 82 (≈ 35.9 µg/mL) |  | IC50 [4]: 20 µM; fraction unbound [5]: 0.037; IC50 [6]: 20 µM; Papp [7]: 32 ×10⁻⁶ cm/s; fraction unbound [8]: 0.029; Drug metabolism [9]: Metabolite_Detected; Drug metabolism [10]: Metabolite_Detected; clearance [11]: 57 mL/min/kg; CL free [12]: 1566 mL/min/kg; IC50 (Cytochrome P450 3A4): 20 µM; half-life [13]: 1.6 h
3 | C[C@@H](NC(=O)c1ccc(F)cc1)c1ccc2c(n1)CCCN2C(=O)OC1CC1 | 181 (≈ 69.4 µg/mL) | 2.8 | 156 (≈ 59.8 µg/mL) | 20 | IC50 [4]: 60 µM; fraction unbound [5]: 0.11; IC50 [6]: 60 µM; Papp [7]: 32 ×10⁻⁶ cm/s; fraction unbound [8]: 0.094; bioavailability [15]: 40%; clearance [16]: 14 mL/min/kg; IC50 (Cytochrome P450 2C9): 6.2 µM; IC50 (Cytochrome P450 3A4): 60 µM; half-life [13]: 1.1 h; CL free [17]: 221 mL/min/kg
4 | Cc1cc(N2CCCc3nc([C@@H](C)NC(=O)c4ccc(F)cc4)ccc32)ccn1 | 177 (≈ 69.1 µg/mL) | 2 | 165 (≈ 64.4 µg/mL) | 0.73 | Stabilty [18]: Stable; Stabilty [19]: Stable
5 | CCOC(=O)N1CCCc2nc([C@@H](C)NC(=O)c3ccc(F)cc3)ccc21 | 183 (≈ 68 µg/mL) | 2.7 | 168 (≈ 62.4 µg/mL) |  | 
6 | C[C@@H](NC(=O)c1ccc(F)cc1)c1ccc2c(n1)CCCN2C(=O)OCC(F)(F)F | 200 (≈ 85.1 µg/mL) | 3 | 132 (≈ 56.2 µg/mL) |  | 
7 | C[C@@H](NC(=O)c1ccc(F)cc1)c1ccc2c(n1)CCCN2C(=O)OC1CCC1 | 184 (≈ 73.1 µg/mL) | 3.2 | 134 (≈ 53.3 µg/mL) |  | 
8 | Cc1nccc(N2CCCc3nc([C@@H](C)NC(=O)c4ccc(F)cc4)ccc32)n1 | 168 (≈ 65.8 µg/mL) |  | 166 (≈ 65 µg/mL) | 18 | 
9 | CC(C)CC(=O)N1CCCc2cc(CNC(=O)c3ccc(Cl)cc3)cnc21 | 185 (≈ 71.4 µg/mL) | 3 | 97 (≈ 37.4 µg/mL) |  | 
10 | C[C@@H](NC(=O)c1ccc(Cl)cc1)c1cc2c(cn1)N(C(=O)c1cccc(Cl)c1)CCC2 | 152 (≈ 69.1 µg/mL) | 3.3 | 27 (≈ 12.3 µg/mL) | 16 | 
11 | C[C@H](NC(=O)c1ccc(Cl)cc1)c1ccc2c(c1)CCCN2C(=O)c1cccc(Cl)c1 | < 1 | 3.7 | 3 (≈ 1.36 µg/mL) | 1 | 
12 | CC(C)CC(=O)N1CCCc2cc(CNC(=O)c3ccsc3)ccc21 | 140 (≈ 49.9 µg/mL) | 2.8 | 137 (≈ 48.8 µg/mL) | 24 | Stabilty [18]: Unstable; inhibition [20]: inactive; clearance [16]: 93 mL/min/kg; half-life [13]: 0.2 h; Stabilty [19]: Unstable
13 | C[C@@H](NC(=O)c1ccc(F)cc1)c1ccc2c(n1)CCCN2c1cccnc1 | 177 (≈ 66.6 µg/mL) | 2.3 | 147 (≈ 55.3 µg/mL) |  | 
14 | O=C(NCc1ccc2c(c1)CCCN2C(=O)c1cccc(Cl)c1)c1ccc(Cl)cc1 |  |  |  | 11 | 
15 | C[C@@H](NC(=O)c1ccc(F)cc1)c1ccc2c(n1)CCCN2c1ccccn1 | 197 (≈ 74.2 µg/mL) | 2.7 | 151 (≈ 56.8 µg/mL) |  | 
16 | C[C@@H](NC(=O)c1ccc(Cl)cc1)c1ccc2c(c1)CCCN2C(=O)c1cccc(Cl)c1 | < 1 | 3.7 | 3 (≈ 1.36 µg/mL) | 1 | Drug metabolism [21]: Metabolite_Detected; Drug metabolism [22]: Metabolite_Detected
17 | C[C@@H](NC(=O)c1ccc(F)cc1)c1ccc2c(n1)CCCN2C(=O)C1(C(F)(F)F)CC1 | 187 (≈ 81.4 µg/mL) | 2.9 | 162 (≈ 70.5 µg/mL) |  | Stabilty [18]: Stable; Stabilty [19]: Stable
18 | C[C@@H](NC(=O)c1ccc(F)cc1)c1ccc2c(n1)CCCN2c1ccnc(C(F)(F)F)n1 | 183 (≈ 81.5 µg/mL) |  | 166 (≈ 73.9 µg/mL) | 25 | fIC50 [23]: 2.1 nM; IC50 [4]: 6 µM; fraction unbound [5]: 0.037; IC50 [6]: 7 µM; Papp [7]: 33 ×10⁻⁶ cm/s; fraction unbound [8]: 0.05; IC50 (Cytochrome P450 2C9): 18 µM; IC50 (Cytochrome P450 3A4): 43 µM
19 | CCCNC(=O)C1(c2ccc(NC(=O)c3cccc(Cl)c3)cc2)CCC1 |  | 3.2 |  |  | 
20 | C[C@@H](NC(=O)c1ccc(Cl)cc1)c1ccc2c(n1)CCCN2C(=O)c1cccc(Cl)c1 | 171 (≈ 77.7 µg/mL) | 3.4 | 11 (≈ 5 µg/mL) | 8.7 | 
21 | C[C@@H](NC(=O)c1ccc(F)cc1)c1ccc2c(n1)CCCN2c1ccnc(C#N)n1 | 163 (≈ 65.6 µg/mL) | 2.7 | 152 (≈ 61.2 µg/mL) |  | 
22 | C[C@@H](NC(=O)c1ccc(Cl)cc1)c1ccc2c(c1)C(F)(F)CCN2C(=O)c1cccc(Cl)c1 | < 4 | 3.9 | < 4 |  | 
23 | CC(C)CC(=O)N1CCCc2cc(CNC(=O)c3ccc(Cl)cc3)ccc21 | 13 (≈ 5 µg/mL) | 3.3 | 13 (≈ 5 µg/mL) | 22 | 
24 | C[C@@H](NC(=O)c1ccc(F)cc1)c1ccc2c(n1)CCCN2c1cnccn1 | 143 (≈ 54 µg/mL) | 2.1 | 4 (≈ 1.51 µg/mL) |  | 
25 | C[C@@H](NC(=O)c1ccc(F)cc1)c1ccc2c(n1)CCCN2c1ncccn1 | 139 (≈ 52.5 µg/mL) | 2.4 | 5 (≈ 1.89 µg/mL) | 20 | 
26 | COC(=O)N1CCCc2nc([C@@H](C)NC(=O)c3ccc(F)cc3)ccc21 | 167 (≈ 59.7 µg/mL) | 2.3 | 154 (≈ 55 µg/mL) |  | 
27 | C[C@@H](NC(=O)c1ccc(F)cc1)c1ccc2c(n1)CCCN2c1ccncn1 | 157 (≈ 59.3 µg/mL) | 1.9 | 164 (≈ 61.9 µg/mL) |  | 
28 | COCCOC(=O)N1CCCc2nc([C@@H](C)NC(=O)c3ccc(F)cc3)ccc21 | 196 (≈ 78.7 µg/mL) | 2.3 | 165 (≈ 66.2 µg/mL) |  | 
29 | C[C@@H](NC(=O)c1ccc(Cl)cc1)c1ccc2c(c1)OCCN2C(=O)c1cccc(Cl)c1 | 1 (≈ 0.455 µg/mL) | 3.6 | 3 (≈ 1.37 µg/mL) | 6.9 | 
